Results on 21 compounds are retold here after patent publication US7071231B2, “Naphthalene ureas as glucose uptake enhancers” (Telik, Inc., priority 1999, dated 2006).

SMILES strings stand for the structures. Counter-ions that a name gives are not always drawn.

The test system of one assay is 3T3 L1 fibroblasts. Nature of the assay: Glucose transport activity assay (14C-2-deoxy-D-glucose uptake). Type of assay: cell-based. Conditions: Mus musculus; EC (effective concentration) for increase in glucose transport; 14C-2-deoxy-D-glucose, 3T3 L1 cells; read-out: Concentration (μM) to reach >150% activity of vehicle control. An outline of the steps:
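Differentiated 3T3 L1 adipocytes (IBMX/dexamethasone/insulin induction), serum-starved overnight, preincubated 30 min at 37 °C with compound ± insulin in pH 7.4 salt buffer, then 30 min with 5 μCi/ml 14C-2-deoxy-D-glucose. Lysate radioactivity counted; EC = concentration raising uptake above 150% of vehicle control.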

Assay [1] deals with T1, β-kinase domain of the human insulin receptor (CKD) (Homo sapiens, UniProt P06213).
T1 construct: The complete β-kinase domain of the human insulin receptor (CKD) was expressed in, and purified from, baculovirus; made in house
In words: 32P-cytoplasmic kinase domain (CKD) autophosphorylation assay. Type of assay: biochemical. Conditions: phosphorylation of CKD expressed as % of the vehicle level; 10 minutes at room temperature; compound concentration not given. How it is done:
^32P-cytoplasmic Kinase Domain (CKD) Autophosphorylation Assay The insulin signaling pathway is activated through stimulation of the insulin receptor. A major component of this activation is the phosphorylation of a specific portion of the receptor called the β-kinase domain. The complete β-kinase domain of the human insulin receptor (CKD) was expressed in, and purified from, baculovirus. CKD (4.0μg/ml), in a solution of 29 mM HEPES (pH 7.6), 0.05% Triton X-100, 10 mM MgCl2, 2 mM MnCl2 (50 μl final volume), was combined with 50 μM ATP, and 5 μCi ^32P-ATP (3000Ci/mmol.). A test compound, or the vehicle (dimethyl sulfoxide (DMSO)) was added to a final DMSO concentration of 1%. The mixture was incubated for 10 minutes at room temperature. The reaction was terminated by the addition of 10 μl 200 mM EDTA. A 30 μl volume was removed, mixed with 5 μl of 6× Laemmeli sodium dodecyl sulfate (SDS) treatment buffer, and heated to 94° C. for 5 minutes. A 20 μl aliquot was then run an SDS-PAGE gel. The radioactivity incorporated into the CKD band was quantified by phosphorimaging of the gel, or scintillation counting of the excised bands. The potency of a compound for increasing phosphorylation was expressed as % of the vehicle level.

T1 sequence (P06213 980-1382 limits assumed): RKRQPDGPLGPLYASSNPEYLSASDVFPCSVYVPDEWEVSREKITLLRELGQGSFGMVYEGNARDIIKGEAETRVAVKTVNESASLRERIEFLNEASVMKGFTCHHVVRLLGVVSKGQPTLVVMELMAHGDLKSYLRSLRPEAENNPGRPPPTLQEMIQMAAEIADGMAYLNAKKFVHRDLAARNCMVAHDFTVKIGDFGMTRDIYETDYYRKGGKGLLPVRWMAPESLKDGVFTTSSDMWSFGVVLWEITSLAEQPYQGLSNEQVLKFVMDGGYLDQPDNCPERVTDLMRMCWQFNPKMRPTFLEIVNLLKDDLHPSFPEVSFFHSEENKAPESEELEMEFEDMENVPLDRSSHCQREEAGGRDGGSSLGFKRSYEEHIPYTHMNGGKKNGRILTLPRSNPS

For the compound `O=C(Nc1ccc2ccc(S(=O)(=O)O)cc2c1)Nc1ccc2ccc(S(=O)(=O)O)cc2c1` [Compound 3, 7-{[(7-sulfo-2-naphthyl)amino]carbonylamino}naphthalene-2-sulfonic acid disodium salt], in the assay with 3T3 L1 fibroblasts, the EC (150% of vehicle control) worked out at 3.2 µM. In addition, the “% Activity vs. Control” value in assay [1] is listed as 88%.

On to `Cc1ccc(OS(=O)(=O)c2cccc(NS(=O)(=O)c3ccc4ccc(NC(=O)Nc5ccc6ccc(S(=O)(=O)Nc7cccc(S(=O)(=O)Oc8ccc(C)cc8)c7)cc6c5)cc4c3)c2)cc1` [Compound 9, 4-methylphenyl 3-[({7-[(N-{7-[({3-[(4-methylphenyl)oxysulfonyl]phenyl}amino)sulfonyl]-2-naphthyl}carbamoyl)amino]-2-naphthyl}sulfonyl)amino]benzenesulfonate], for which, in assay [1], the “% Activity vs. Control” value was found to be 118%.

As to `Cc1ccc(OS(=O)(=O)c2cccc(NS(=O)(=O)c3cc(O)c4ccc(NC(=O)Nc5ccc6c(O)cc(S(=O)(=O)Nc7cccc(S(=O)(=O)Oc8ccc(C)cc8)c7)cc6c5)cc4c3)c2)cc1` [Compound 11, 4-methylphenyl 3-[({4-hydroxy-7-[(N-{5-hydroxy-7-[({3-[(4-methylphenyl)oxysulfonyl]phenyl}amino)sulfonyl](2-naphthyl)}carbamoyl)amino]-2-naphthyl}sulfonyl)amino]benzenesulfonate], the “% Activity vs. Control” value in assay [1] was found to be 96%.

For the compound `O=C(Nc1ccc2ccc(S(=O)(=O)O)cc2c1)Nc1ccc2ccc(S(=O)(=O)Nc3cccc(S(=O)(=O)O)c3)cc2c1` [Compound 12, 7-{[(7-{[(3-sulfophenyl)amino]sulfonyl}-2-naphthyl)amino]carbonylamino}naphthalene-2-sulfonic acid disodium salt], the “% Activity vs. Control” value in assay [1] is on record as 131%.

For `O=C(Nc1ccc2c(O)cc(S(=O)(=O)O)cc2c1)Nc1ccc2c(O)cc(S(=O)(=O)Nc3cccc(S(=O)(=O)O)c3)cc2c1` [Compound 14, 4-hydroxy-7-{[(5-hydroxy-7-{[(3-sulfophenyl)amino]sulfonyl}(2-naphthyl))amino]carbonylamino}naphthalene-2-sulfonic acid], in assay [1], the “% Activity vs. Control” value is recorded as 110%.

Turning to `O=C(Nc1ccc2c(O)c(Br)c(S(=O)(=O)O)cc2c1)Nc1ccc2c(O)c(Br)c(S(=O)(=O)O)cc2c1` [Compound 16, 3-bromo-7-{[(6-bromo-5-hydroxy-7-sulfo(2-naphthyl))amino]carbonylamino}-4-hydroxynaphthalene-2-sulfonic acid disodium salt], in the assay with 3T3 L1 fibroblasts, the EC (150% of vehicle control) was found to be 32 µM. In assay [1], the “% Activity vs. Control” value was found to be 144%.

For `NS(=O)(=O)c1cccc(NS(=O)(=O)c2ccc3ccc(NC(=O)Nc4ccc5ccc(S(=O)(=O)Nc6cccc(S(N)(=O)=O)c6)cc5c4)cc3c2)c1` [Compound 23, N-(7-{[(3-sulfamoylphenyl)amino]sulfonyl}(2-naphthyl))[(7-{[(3-sulfamoylphenyl)amino]sulfonyl}(2-naphthyl))amino]carboxamide], in the assay with 3T3 L1 fibroblasts, the EC (150% of vehicle control) came out at 10 µM. Besides, in assay [1], the “% Activity vs. Control” value is on record as 80%.

For `COC(=O)c1ccc(NS(=O)(=O)c2cc(O)c3ccc(NC(=O)Nc4ccc5c(O)cc(S(=O)(=O)O)cc5c4)cc3c2)cc1` [Compound 26, 4-hydroxy-7-({[5-hydroxy-7-({[4-(methoxycarbonyl)phenyl]amino}sulfonyl)(2-naphthyl)]amino}carbonylamino)naphthalene-2-sulfonic acid], the EC (150% of vehicle control) in the assay with 3T3 L1 fibroblasts was 32 µM. Moreover, the “% Activity vs. Control” value in assay [1] was 124%.

On to `COC(=O)c1ccc(NS(=O)(=O)c2cc(O)c3ccc(NC(=O)Nc4ccc5c(O)cc(S(=O)(=O)Nc6ccc(C(=O)OC)cc6)cc5c4)cc3c2)cc1` [Compound 27, methyl 4-({[4-hydroxy-7-({[5-hydroxy-7-({[4-(methoxycarbonyl)phenyl]amino}sulfonyl)(2-naphthyl)]amino}carbonylamino)-2-naphthyl]sulfonyl}amino)benzoate], for which the “% Activity vs. Control” value in assay [1] is 112%.

Turning to `O=C(Nc1ccc2c(O)cc(S(=O)(=O)O)cc2c1)Nc1ccc2c(O)cc(S(=O)(=O)Nc3ccc(C(=O)O)cc3)cc2c1` [Compound 28, 4-{[(4-hydroxy-7-{[N-(5-hydroxy-7-sulfo(2-naphthyl))carbamoyl]amino}-2-naphthyl)sulfonyl]amino}benzoic acid], the EC (150% of vehicle control) in the assay with 3T3 L1 fibroblasts stood at 32 µM. In assay [1], the “% Activity vs. Control” value worked out at 124%.

For `COC(=O)c1cccc(NS(=O)(=O)c2ccc3ccc(NC(=O)Nc4ccc5ccc(S(=O)(=O)Nc6cccc(C(=O)OC)c6)cc5c4)cc3c2)c1` [Compound 39, methyl 3-({[7-({[7-({[3-(methoxycarbonyl)phenyl]amino}sulfonyl)-2-naphthyl]amino}carbonylamino)-2-naphthyl]sulfonyl}amino)benzoate], in the assay with 3T3 L1 fibroblasts, the EC (150% of vehicle control) amounted to 32 µM. Also, in assay [1], the “% Activity vs. Control” value is 93%.

With `O=C(Nc1ccc2ccc(S(=O)(=O)Nc3cccc(C(=O)O)c3)cc2c1)Nc1ccc2ccc(S(=O)(=O)Nc3cccc(C(=O)O)c3)cc2c1` [Compound 40, 3-{[(7-{[N-(7-{[(3-carboxyphenyl)amino]sulfonyl}-2-naphthyl)carbamoyl]amino}-2-naphthyl)sulfonyl]amino}benzoic acid], in the assay with 3T3 L1 fibroblasts, the EC (150% of vehicle control) was 3.2 µM. In addition, in assay [1], the “% Activity vs. Control” value was determined as 130%.

On to `O=C(Nc1ccc2c(O)cc(S(=O)(=O)Nc3cccc(C(=O)O)c3)cc2c1)Nc1ccc2c(O)cc(S(=O)(=O)Nc3cccc(C(=O)O)c3)cc2c1` [Compound 42, 3-{[(7-{[N-(7-{[(3-carboxyphenyl)amino]sulfonyl}-5-hydroxy(2-naphthyl))carbamoyl]amino}-4-hydroxy-2-naphthyl)sulfonyl]amino}benzoic acid], for which the EC (150% of vehicle control) in the assay on 3T3 L1 fibroblasts is 3.2 µM. Moreover, in assay [1], the “% Activity vs. Control” value was found to be 124%.

With `O=C(Nc1ccc2ccc(S(=O)(=O)Nc3ccccc3)cc2c1)Nc1ccc2ccc(S(=O)(=O)Nc3ccccc3)cc2c1` [Compound 76, N-{7-[(phenylamino)sulfonyl](2-naphthyl)}({7-[(phenylamino)sulfonyl](2-naphthyl)}amino)carboxamide], the “% Activity vs. Control” value in assay [1] is 89%.

Consider `O=C(Nc1ccc2ccc(S(=O)(=O)Nc3cccnc3)cc2c1)Nc1ccc2ccc(S(=O)(=O)Nc3cccnc3)cc2c1` [Compound 77, N-{7-[(3-pyridylamino)sulfonyl](2-naphthyl)}({7-[(3-pyridylamino)sulfonyl](2-naphthyl)}amino)carboxamide], for which, in the assay with 3T3 L1 fibroblasts, the EC (150% of vehicle control) stood at 3.2 µM. In addition, in assay [1], the “% Activity vs. Control” value is on record as 171%.

As for `NS(=O)(=O)c1ccc2ccc(NC(=O)Nc3ccc4ccc(S(N)(=O)=O)cc4c3)cc2c1` [Compound 89, N-(7-sulfamoyl(2-naphthyl))[(7-sulfamoyl(2-naphthyl))amino]carboxamide], the EC (150% of vehicle control) in the assay with 3T3 L1 fibroblasts came to 3.2 µM. Further, the “% Activity vs. Control” value in assay [1] was determined as 104%.

`CCOC(=O)COc1cc(S(=O)(=O)O)cc2cc(NC(=O)Nc3ccc4c(OCC(=O)OCC)cc(S(=O)(=O)O)cc4c3)ccc12.N.N` [Compound 95, 4-[(ethoxycarbonyl)-methoxy]-7-[({5-[(ethoxycarbonyl)methoxy]-7-sulfo(2-naphthyl)}amino)-carbonylamino]-naphthalene-2-sulfonic acid, diammonium salt]: the “% Activity vs. Control” value in assay [1] is on record as 101%.

As to `O=C(O)COc1cc(S(=O)(=O)[O-])cc2cc(NC(=O)Nc3ccc4c(OCC(=O)O)cc(S(=O)(=O)[O-])cc4c3)ccc12.[Na+].[Na+]` [Compound 97, 2-[6-({N-[5-(carboxymethoxy)-7-sulfo(2-naphthyl)]carbamoyl}amino)-3-sulfonaphthyloxy]acetic acid disodium salt], in assay [1], the “% Activity vs. Control” value was determined as 99%.

In the case of `O=C(Nc1ccc2c(OCc3ccccc3S(=O)(=O)O)cc(S(=O)(=O)O)cc2c1)Nc1ccc2c(OCc3ccccc3S(=O)(=O)O)cc(S(=O)(=O)O)cc2c1` [Compound 100, 4-[(2-sulfophenyl)methoxy]-7-[({7-sulfo-5-[(2-sulfophenyl)methoxy](2-naphthyl)}amino)carbonylamino]naphthalene-2-sulfonic acid], in assay [1], the “% Activity vs. Control” value turned out to be 79%.

With `O=C(Nc1ccc2c(OCCCS(=O)(=O)O)cc(S(=O)(=O)O)cc2c1)Nc1ccc2c(OCCCS(=O)(=O)O)cc(S(=O)(=O)O)cc2c1` [Compound 101, 4-(3-sulfopropoxy)-7-({[7-sulfo-5-(3-sulfopropoxy)(2-naphthyl)]amino}carbonylamino)naphthalene-2-sulfonic acid], the “% Activity vs. Control” value in assay [1] is 104%.

As to `O=C(Nc1ccc2c(O)cc(S(=O)(=O)O)cc2c1)Nc1ccc2c(OCCCS(=O)(=O)O)cc(S(=O)(=O)O)cc2c1` [Compound 102, 4-hydroxy-7-({[7-sulfo-5-(3-sulfopropoxy)(2-naphthyl)]amino}carbonylamino)naphthalene-2-sulfonic acid], in assay [1], the “% Activity vs. Control” value is 115%.
